Earlier results, collected in PMC4357254, “Molecular cloning and characterization of the allatotropin precursor and receptor in the desert locust, Schistocerca gregaria” (Frontiers in Neuroscience, 2015).
Where no end group is shown, it is not given here.

Assays:
corpora allata (CA) = conditions: in vitro; ref Kataoka et al., [1989]
Description: Allatotropin (AT) was originally identified as an amidated tridecapeptide isolated from the nervous system of the lepidopteran Manduca sexta. […] Most ATs have a conserved C-terminal pentapeptide that consists of a TARGFa motif although the hymenopteran AT has an exceptional TAYGFa C-terminal (Veenstra et al., [2012]). There are also AT-like peptides (ATLs) that contain more variation in their C-terminal motif but t ...

[1] = tested on: neuropeptide 16 receptor in Bombyx mori; conditions: ref Yamanaka et al., [2008]
Description: (§1) ATs exert effects on their cellular targets by binding to receptors with high affinity binding sites that are members of the family of rhodopsin-like G protein-coupled receptors (GPCRs). The AT receptors (ATRs) are orthologous to vertebrate orexin/hypocretin receptors. To date, five ATRs have been characterized; namely the neuropeptide 16 receptor in Bombyx mori (Yamanaka et al., [2008]), the receptors of M. sexta (Horodyski et al., [2011]), Tribolium castaneum (Vuerinckx et al., [2011]), Aedes aegypti (Nouzova et al., [2012]) and Bombus terrestris (Verlinden et al., [2013]). The first three w ...

[2] = tested on: ATR receptor of B. terrestris; conditions: ref Verlinden et al., [2013]
Description: as §1

T. castaneum receptor = conditions: ref Vuerinckx et al., [2011]
Description: as §1

ATR of M. sexta = conditions: ref Horodyski et al., [2011]
Description: as §1

Manse-AT: amidated tridecapeptide isolated from the nervous system of the lepidopteran Manduca sexta (GFKNVEMMTARGF-NH2; UniProt P21786 37-49, looked up)
JH biosynthesis in the corpora allata (corpora allata (CA)): stimulate juvenile hormone (JH) biosynthesis | activation of B. mori neuropeptide 16 receptor [1]: dose-dependently activated | activation of B. terrestris ATR [2]: responded | concentrations needed for activation of B. terrestris ATR ([2]; relative to other ATRs): much higher concentrations were needed | activation of T. castaneum ATR (T. castaneum receptor): dose-dependently activated | activation of M. sexta ATR (ATR of M. sexta): dose-dependently activated
